Source: ChEMBL document CHEMBL1121941, “Two clonidine-like compounds with substituents at the 2-, 3-, and 6-position of the phenyl ring possessing pronounced hypotensive potencies” (J Med Chem, 1982)

Experiments:
[1] = Partition coefficient (logP); type: physicochemical; settings: octanol/water
Felis catus = assay: Hypotensive activity measured as the 20% decrease in mean arterial blood pressure in anesthetized cat; type: functional
Rattus norvegicus = assay: Hypotensive activity measured as the 20% decrease in mean arterial blood pressure in anesthetized normotensive rat; type: functional

SMILES | logP [1] | pC20 (Felis catus) | pC20 (Rattus norvegicus)
Clc1ccc(Cl)c(NC2=NCCN2)c1Cl | 1.71 | 9.17 | 8.39
Clc1cccc(Cl)c1NC1=NCCN1 [CLONIDINE] | 0.91 | 8.72 | 7.96
Cc1ccc(Cl)c(Cl)c1NC1=NCCN1 | 1.06 | 7.92 | 7.79
